This is an account of results in patent US20250381254A1, “Augmented Acid Alpha-Glucosidase For The Treatment Of Pompe Disease” (Amicus Therapeutics, Inc., priority 2015, published 2025).

Like-named read-outs stand apart in the source and are kept apart here.

Data set [1] can be described thus: Population PK model of duvoglustat in plasma and tissue. Particulars: typical value. Format: in vivo, human. Here is the method: Concentration-time profiles of miglustat (200 mg) in Pompe disease patients are compared to those obtained following administration of duvoglustat in normal healthy volunteers (dose range: 50, 100, 250, 600, and 1000 mg). Because concentration-time profiles of miglustat in patients with Pompe disease are similar to those observed following dosing of duvoglustat in healthy subjects over 24 h, PK data collected for duvoglustat in peripheral tissues were used as a surrogate to model exposure to miglustat. A two-compartment model with linear elimination is used to characterize the concentration-time profiles of duvoglustat in tissues.

Data set [2] is described as follows: Specific activity of ATB200 batches. Format: biochemical. As to the method: Two batches of ATB200 with different sialic acid content were evaluated for pharmacokinetics and efficacy in Gaa KO mice.
A short description of data set [3]: Plasma GAA activity half-life of ATB200 batches after single IV bolus. Format: in vivo, mouse. Particulars: GAA activity in plasma, Gaa KO mice.
The subject of data set [4] is Gaa KO mice. As to the kind of experiment: Glycogen reduction by ATB200 batches vs Lumizyme. In kind it is in vivo, mouse. As to conditions: 2 IV bolus injections every other week, FIGS. 37A-37D. As to the method:
In a related study, IV bolus tail vein injections of ATB200 (Batches A and B) and Lumizyme® were given to Gaa KO mice every other week for a total of 2 injections. Glycogen levels in tissues were measured 14 days after last administration.

For a further data set, the target named is CIMPR (Homo sapiens, UniProt P11717). Briefly: CIMPR affinity chromatography of rhGAA. In kind it is binding. Particulars: fraction of total enzyme by GAA activity. Here is the method: To evaluate the ability of the rhGAA in Myozyme® and Lumizyme®, the only currently approved treatments for Pompe disease, these rhGAA preparations were injected onto a CIMPR column (which binds rhGAA having M6P groups) and subsequently eluted with a free […] gradient. Fractions were collected in 96-well plate and GAA activity assayed by 4MU—α-glucose substrate. The relative amounts of bound and unbound rhGAA were determined based on GAA activity and reported as the fraction of total enzyme.
Sequence of CIMPR (P11717 41-2491, species assumed): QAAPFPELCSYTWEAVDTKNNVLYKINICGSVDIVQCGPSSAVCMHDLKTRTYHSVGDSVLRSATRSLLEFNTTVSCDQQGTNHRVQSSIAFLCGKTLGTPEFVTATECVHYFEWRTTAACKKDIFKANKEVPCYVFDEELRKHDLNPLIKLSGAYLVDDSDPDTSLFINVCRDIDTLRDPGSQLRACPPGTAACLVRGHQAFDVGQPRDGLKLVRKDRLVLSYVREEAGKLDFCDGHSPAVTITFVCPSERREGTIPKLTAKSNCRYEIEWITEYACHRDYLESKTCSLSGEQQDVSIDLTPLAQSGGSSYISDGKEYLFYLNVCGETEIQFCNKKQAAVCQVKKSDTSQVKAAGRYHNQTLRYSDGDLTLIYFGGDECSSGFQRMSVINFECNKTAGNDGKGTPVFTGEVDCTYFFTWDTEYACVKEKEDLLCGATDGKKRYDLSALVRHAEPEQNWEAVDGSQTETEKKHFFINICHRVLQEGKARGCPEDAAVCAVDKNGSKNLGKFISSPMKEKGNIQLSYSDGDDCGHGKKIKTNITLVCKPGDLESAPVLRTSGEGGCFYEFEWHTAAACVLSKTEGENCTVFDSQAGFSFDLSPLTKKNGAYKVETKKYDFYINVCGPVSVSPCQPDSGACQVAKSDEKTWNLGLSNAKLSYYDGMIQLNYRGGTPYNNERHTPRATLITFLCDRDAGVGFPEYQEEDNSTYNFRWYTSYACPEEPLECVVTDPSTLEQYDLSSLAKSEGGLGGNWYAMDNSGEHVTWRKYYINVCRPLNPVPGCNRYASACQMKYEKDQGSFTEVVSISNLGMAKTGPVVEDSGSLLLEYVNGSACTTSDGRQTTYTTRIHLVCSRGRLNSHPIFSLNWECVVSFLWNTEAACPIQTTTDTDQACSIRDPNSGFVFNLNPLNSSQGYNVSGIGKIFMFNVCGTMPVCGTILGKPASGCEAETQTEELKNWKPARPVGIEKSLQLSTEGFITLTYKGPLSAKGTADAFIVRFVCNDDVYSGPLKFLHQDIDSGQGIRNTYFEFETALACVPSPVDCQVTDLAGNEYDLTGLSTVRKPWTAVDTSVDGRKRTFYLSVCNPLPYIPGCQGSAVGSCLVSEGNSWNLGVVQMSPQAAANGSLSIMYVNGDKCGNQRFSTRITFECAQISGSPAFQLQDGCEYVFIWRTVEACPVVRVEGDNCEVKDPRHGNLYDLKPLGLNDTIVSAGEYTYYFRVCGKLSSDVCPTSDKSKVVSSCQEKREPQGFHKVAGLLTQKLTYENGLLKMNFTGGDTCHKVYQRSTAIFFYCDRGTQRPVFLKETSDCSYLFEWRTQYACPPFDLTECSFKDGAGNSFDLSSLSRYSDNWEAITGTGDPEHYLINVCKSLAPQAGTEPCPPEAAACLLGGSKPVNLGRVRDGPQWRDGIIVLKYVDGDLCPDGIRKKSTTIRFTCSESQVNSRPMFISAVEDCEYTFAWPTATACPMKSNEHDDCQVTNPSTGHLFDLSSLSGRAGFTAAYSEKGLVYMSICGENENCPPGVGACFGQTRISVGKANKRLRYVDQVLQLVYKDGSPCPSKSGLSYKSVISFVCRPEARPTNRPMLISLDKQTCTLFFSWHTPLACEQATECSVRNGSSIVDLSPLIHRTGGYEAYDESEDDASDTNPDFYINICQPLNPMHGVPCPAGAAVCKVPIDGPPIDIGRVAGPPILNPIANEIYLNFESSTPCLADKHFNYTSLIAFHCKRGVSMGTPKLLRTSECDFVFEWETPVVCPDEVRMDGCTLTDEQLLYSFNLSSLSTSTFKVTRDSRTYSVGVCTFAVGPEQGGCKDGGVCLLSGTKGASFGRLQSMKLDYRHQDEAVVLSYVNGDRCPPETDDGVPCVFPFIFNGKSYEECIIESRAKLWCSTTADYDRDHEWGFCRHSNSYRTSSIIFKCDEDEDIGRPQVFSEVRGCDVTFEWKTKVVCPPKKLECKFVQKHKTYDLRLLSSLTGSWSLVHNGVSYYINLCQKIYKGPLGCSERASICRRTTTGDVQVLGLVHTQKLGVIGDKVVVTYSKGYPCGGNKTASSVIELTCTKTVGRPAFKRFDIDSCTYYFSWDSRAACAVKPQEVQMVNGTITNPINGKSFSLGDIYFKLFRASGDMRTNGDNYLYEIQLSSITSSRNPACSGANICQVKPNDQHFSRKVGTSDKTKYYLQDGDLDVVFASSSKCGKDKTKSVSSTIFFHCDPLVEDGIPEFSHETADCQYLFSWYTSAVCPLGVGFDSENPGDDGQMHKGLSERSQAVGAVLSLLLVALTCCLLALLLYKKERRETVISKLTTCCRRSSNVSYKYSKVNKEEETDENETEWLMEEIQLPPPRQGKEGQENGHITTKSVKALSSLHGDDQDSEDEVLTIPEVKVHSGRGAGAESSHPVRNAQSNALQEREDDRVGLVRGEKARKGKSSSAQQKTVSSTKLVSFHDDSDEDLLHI

In data set [5] the test system is Gaa KO mice. As to the kind of experiment: Cellular dysfunction in Gaa KO mice after 2 administrations. Format: in vivo, mouse. As to conditions: 20 mg/kg ERT every other week, miglustat 10 mg/kg. As to the method:
These key muscle proteins require proper protein trafficking to the muscle cell membrane where they function. […] Alglucosidase alfa (Myozyme®) and ATB200 with and without 10 mg/kg miglustat were evaluated in Gaa KO mice at equivalent ERT dose (20 mg/kg) via an every other week dosing schedule. […] In FIGS. 32A-32D, * indicates statistically significant compared to Myozyme® alone.

The conditions of data set [6]: 20 to 40 mg/kg alglucosidase alfa with 4 doses of 80 mg miglustat; 13 Pompe subjects; mean; cited from earlier work.
A short description of data set [7]: Apparent plasma half-life in vivo.

A word on the clearance: it is the volume of plasma or blood freed of the substance per unit of time. With `OC[C@H]1NC[C@H](O)[C@@H](O)[C@@H]1O` [duvoglustat, (2R,3R,4R,5S)-2-(hydroxymethyl)piperidine-3,4,5-triol], the clearance in data set [1] (human, plasma and tissue, read-out: Central compartment clearance (CL2) (converted)) was 3.42 mL/min. Moreover, the clearance in data set [1] (human, plasma and tissue, read-out: Systemic clearance (CL) (converted)) is 157 mL/min. In addition, the Vd in data set [1] (human, plasma and tissue, read-out: Volume of distribution (V)) was 44.5 L. In data set [1], the “Apparent intercompartment clearance (CLQ)” value amounted to 40.6 L/h, the “Elimination rate constant (Keo)” value came out at 0.378, the “Intercompartment volume of distribution (VQ)” value came to 61.8 L and the “Intercompartment volume of distribution within central compartment (VQ2)” value is 3390 L. In data set [1], the Lag time stood at 0.176 h, the “Peripheral compartment clearance (CL3)” value is 88.0 L/h, the “Peripheral volume of distribution (V2)” value is 8.68 L and the “Rate constant of absorption (Ka)” value was found to be 1.10 h⁻¹.

For the compound “Batch A: batch of ATB200 with sialic acid 4.0 mol/mol protein and M6P content 3.3 mol/mol protein”, the Specific activity in data set [2] was 115831 (nmol nmol 4 mu/mg protein/hr. Further, in data set [3], the “Half-life, Mean ± SEM” value came to 30 ± 1.2 min. In the data set on Gaa KO mice [4], the “glycogen reduction vs Lumizyme®” value is recorded as “superior to Lumizyme® in reducing glycogen”.

Turning to “Batch B: batch of ATB200 with sialic acid 5.4 mol/mol protein and M6P content 2.9 mol/mol protein”, the Specific activity in data set [2] is reported as 120929 (nmol nmol 4 mu/mg protein/hr. In addition, the “Half-life, Mean ± SEM” value in data set [3] came to 36 ± 1.8 min. In addition, the “glycogen reduction vs Lumizyme®” value with Gaa KO mice [4] is reported as “superior to Lumizyme® in reducing glycogen”. Moreover, in the data set on Gaa KO mice [4] (similar doses), the “glycogen reduction, Batch B vs Batch A” value is “generally more effective in reducing glycogen than Batch A”.

For “Myozyme®: conventional rhGAA product (alglucosidase alfa), Genzyme”, in the data set with CIMPR, the “rhGAA activity eluted prior to addition of M6P (did not bind to the CIMPR)” value is 73% and the “rhGAA eluted with M6P / containing M6P (CIMPR binding)” value turned out to be 27%.

As for “[199-arginine,223-histidine]prepro-α-glucosidase (human) [alglucosidase alfa]”, in the data set with Gaa KO mice [5] (FIGS. 29-30), the “autophagy (LC3 II) and lysosomal proliferation (LAMP1)” value is “negligible effects towards reducing autophagy”. The “lysosomal glycogen in skeletal muscles” value in the data set with Gaa KO mice [5] (FIGS. 32A-32D) was “modestly reduced accumulated lysosomal glycogen in skeletal muscles”. Further, the “increase in acid α-glucosidase activity exposure (AUC), co-administration vs alglucosidase alfa alone” value in data set [6] is given as 6.8 fold. In addition, the “apparent plasma half-life t1/2” value in data set [7] is on record as roughly 60 min.
